# Data: PMC11309765, “Mechanism of the blood-brain barrier modulation by cadherin peptides” (Exploration of drug science, 2024)
# Entries after “also recorded” stand apart in the source; their conditions may differ. Bridges are numbered along the chain shown (N, C = ends).
# What was measured:
# BBB [1] = test system: BBB; design: method as in 3 sources, ref 49 = [49]; PMID 12754091; doi:10.1016/s0361-9230(03)00043-1; 49. Borlongan CV , Emerich DF . Facilitation of drug entry into the CNS via transient permeation of blood brain barrier: laboratory and preliminary clinical evidence from bradykinin receptor agonist, ||| ref 50 = [50]; PMID 22524793; doi:10.1021/mp3000937; 50. Zwanziger D , Hackel D , Staat C , Böcker A , Brack A , Beyermann M , A peptidomimetic tight junction modulator to improve regional analgesia . Mol Pharm . 2012; 9 : 1785 – 94 . 22524793 10.1021/ ||| ref 43-45 = [43]; PMID 25307218; doi:10.1016/bs.apha.2014.06.002; 43. Doolittle ND , Muldoon LL , Culp AY , Neuwelt EA . Delivery of chemotherapeutics across the blood-brain barrier: challenges and advances . Adv Pharmacol . 2014; 71 : 203 – 43 . 25307218 10.1016/b || [44]; 44. Smith QR . Quantitation of Blood-Brain Barrier Permeability . In: Neuwelt EA , editor. Implications of the Blood-Brain Barrier and Its Manipulation: Volume 1 Basic Science Aspects . Boston, MA : S || [45]; PMID 3930991; doi:10.1227/00006123-198509000-00004; 45. Neuwelt EA , Barnett PA , McCormick CI , Frenkel EP , Minna JD . Osmotic blood-brain barrier modification: monoclonal antibody, albumin, and methotrexate delivery to cerebrospinal fluid and brain; settings: hypertonic mannitol solution; cited from earlier work
# EC1 domain of E-cadherin = settings: cited from earlier work
# Excerpt: The BBB paracellular porosity can be magnified by Ala-Asp-Thr (ADT) and His-Ala-Val (HAV) peptides that were derived from cadherin sequences to inhibit cadherin-cadherin interactions. The ADT and HAV peptides were designed from the amino acid sequences of the bulge and grove regions in the cadherin EC1 domain, respectively. As BBB modulators (BBBMs), both ADT and/or HAV peptides enhanced brain depositions of various sizes of molecules to the brain parenchyma such as IRdye 800CW, ^3H-daunomycin, adenanthin, or gadolinium-diethylenetriaminepentacetate (Gd-DTPA or gadopent ... || Figure 6. The proposed mechanisms of binding for Ala-Asp-Thr (ADT) and His-Ala-Val (HAV) peptides to extracellular-1 (EC1) domain of cadherin to inhibit cadherin-cadherin interactions. (A) A model to represent cadherin-to-cadherin interactions in the paracellular pathway at the adherens junction. First is the cis-interaction of EC1 and EC2 on two cadherin proteins that are protruding from one side of cell membranes. Second is the trans-interaction of EC1-EC1 from two cadherins that reside in two opposite membranes; (B) the EC1-EC1 interaction with domain swapping between the N-terminal Trp2 an ... || We hypothesized that HAV and ADT peptides prevent cadherin-cadherin interactions by binding to EC1 in the BBB adherens junctions (Figure 6C and D). Cadherin peptides disrupt the integrity of cell-cell adhesion in dynamics and reversible fashion in paracellular pathways of the BBB. Thus, the NMR and molecular docking experiments were carried out to determine the EC1 binding properties of ADT peptides.
# [2] = test system: blood-brain barrier (BBB); settings: cited from earlier work
# Excerpt: In addition, Gd-DTPA delivery to the brain was enhanced when co-administered with ADTC5 in living mice upon detection with magnetic resonance imaging (MRI). […] Different cadherin peptides produced different durations of the BBB opening for different sizes of del ...
# BBB [3] = settings: in vivo; cited from earlier work
# Excerpt: As BBBMs, the in vivo activities of ADT and HAV peptides to modulate the BBB were transient and reversible. […] Different cadherin peptides produced different durations of the BBB opening for different sizes of del ...
# [4] = target: 15N-labeled extracellular-1 (EC1) domain of human E-cadherin (human, UniProt P12830 155-367, 15N-labeled); assay: NMR titration; 1H-15N HSQC (600 MHz) of 15N-labeled EC1 titrated with peptide; 20.0 mM potassium phosphate, 5.0 mM DTT, pH 6.0, 6% D2O; chemical shift perturbation; Kd from the titration curve of a single residue (Ile53 or Leu21); settings: both partners purified
# 15N-labeled extracellular-1 (EC1) domain of human E-cadherin, sequence (P12830 155-367): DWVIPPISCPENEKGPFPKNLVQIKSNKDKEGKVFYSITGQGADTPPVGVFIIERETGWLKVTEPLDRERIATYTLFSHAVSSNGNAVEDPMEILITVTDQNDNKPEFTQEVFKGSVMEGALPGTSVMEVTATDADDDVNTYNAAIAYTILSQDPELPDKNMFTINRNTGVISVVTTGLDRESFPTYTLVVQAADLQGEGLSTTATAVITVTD
molecule,measurement,setting,value
OC[C@@H](O)[C@@H](O)[C@H](O)[C@H](O)CO [mannitol],BBB paracellular porosity by osmotic disruption,BBB [1],increase paracellular porosity of the intercellular junctions
"Ac-SHAVSS-NH2 [HAV6, reference compound]",EC1 binding site location,EC1 domain of E-cadherin,dock on the surface of EC1 that interacts with the EC2 surface from a neighboring cadherin protein
same,delivery of mAb to brain,[2]; 150 kDa mAb,could not deliver mAb when administered together
same,duration of BBB opening for transport of Gd-DTPA,[2]; Gd-DTPA,less than 45 min
same,delivery of Galbumin to brain,[2]; delay in the administration of HAV6 and Galbumin,could not deliver Galbumin when there was a delay in the administration of HAV6 and Galbumin
same,inflammation and astrogliosis,BBB [3],did not induce inflammation and astrogliosis
"Cyclo(1,6)Ac-CSHAVC-NH2 (disulfide) [cHAVc3]",EC1 binding and effect on cis-cadherin interactions,EC1 domain of E-cadherin,increased the porosity of the paracellular route through binding to the EC1 domain followed by disruption of the cis-cadherin interactions
same,EC1 binding site location,EC1 domain of E-cadherin,found at the opposite side of ADT cyclic 5 (ADTC5) binding site; also recorded: dock on the surface of EC1 that interacts with the EC2 surface from a neighboring cadherin protein; also recorded: binds to the opposite side of ADTC5-binding site
"Ac-CDTPPVC-NH2 (disulfide 1-7; SMILES CC(=O)N[C@H]1CSSC[C@@H](C(N)=O)NC(=O)[C@H](C(C)C)NC(=O)[C@@H]2CCCN2C(=O)[C@@H]2CCCN2C(=O)[C@H]([C@@H](C)O)NC(=O)[C@H](CC(=O)O)NC1=O, Cyclo(1,7)Ac-CDTPPVC-NH2; ADT peptide designed from the bulge region of the cadherin EC1 domain; also called ADT cyclic 5; source: synthetic peptide (Fmoc solid-phase synthesis, HPLC purified, cyclized by air oxidation)) [Ala-Asp-Thr Cyclic 5 (ADTC5)]",Kd,[4],35 µM
"Ac-CDTPPEC-NH2 (disulfide 1-7; SMILES CC(=O)N[C@H]1CSSC[C@@H](C(N)=O)NC(=O)[C@H](CCC(=O)O)NC(=O)[C@@H]2CCCN2C(=O)[C@@H]2CCCN2C(=O)[C@H]([C@@H](C)O)NC(=O)[C@H](CC(=O)O)NC1=O, Cyclo(1,7)Ac-CDTPPEC-NH2; derivative of ADTC5 with Val6 replaced by Glu6; source: synthetic peptide (Fmoc solid-phase synthesis, HPLC purified, cyclized by air oxidation)) [ADTC7]",Kd,[4],64 µM
"Ac-CDTPPYC-NH2 (disulfide 1-7; SMILES CC(=O)N[C@H]1CSSC[C@@H](C(N)=O)NC(=O)[C@H](Cc2ccc(O)cc2)NC(=O)[C@@H]2CCCN2C(=O)[C@@H]2CCCN2C(=O)[C@H]([C@@H](C)O)NC(=O)[C@H](CC(=O)O)NC1=O, Cyclo(1,7)Ac-CDTPPYC-NH2; derivative of ADTC5 with Val6 replaced by Tyr6; source: synthetic peptide (Fmoc solid-phase synthesis, HPLC purified, cyclized by air oxidation)) [ADTC9]",Kd,[4],181 µM
